{"source": "patent US20250368714A1", "about": "“TREATMENT OF CANCER” (Immutep S.A.S., priority 2022, published 2025)", "key": {"[1]": {"test_system": "Patients with HR+ HER2-Neg/Low after Failure of ET Based Therapy", "settings": "No prior CDK4/6; cited from earlier work"}, "[2]": {"test_system": "unresectable locally advanced or metastatic PD-L1 positive TNBC", "settings": "PD-L1 inhibitor plus paclitaxel; cited from earlier work"}, "[3]": {"test_system": "locally recurrent unresectable or metastatic TNBC", "settings": "patients with CPS of 10 or more; cut-off Dec. 11, 2019; placebo-chemotherapy 5.6; cited from earlier work"}, "[4]": {"test_system": "HER2 negative hormone receptor-positive metastatic breast cancer patients", "experiment": "AIPAC Phase IIb study: paclitaxel+IMP321 vs paclitaxel+placebo, overall survival", "format": "in vivo, human", "settings": "AIPAC paclitaxel plus placebo group", "experimental": "A multicentre, placebo-controlled, double-blind, 1:1 randomised Phase IIb study in female HER2 negative hormone receptor-positive metastatic breast cancer patients was conducted. The study comprised two stages: • stage 1 which was an open-label, safety run-in stage consisting of cohorts 1 and 2 to confirm the recommended Phase II dose (RPTD) of IMP321 in combination with paclitaxel; and • stage 2 which was a placebo-controlled, double-blind randomisation stage, paclitaxel+IMP321 at the RPTD compared to paclitaxel+placebo.\nThe chemo-immunotherapy phase consisted of 6 cycles of 4 weeks. Patients received weekly paclitaxel at Days 1, 8 and 15 with adjunctive treatment of study agent (IMP321) on Days 2 and 16 of each 4-week cycle. After completion of the 6-cycle chemo-immunotherapy phase, responding or stable patients received study agent (IMP321) every 4 weeks during the maintenance phase for an additional period of up to 12 injections.\nThe chemo-immunotherapy phase consisted of 6 cycles of 4 weeks. Patients received weekly paclitaxel at Days 1, 8 and 15 with adjunctive treatment of study agent (placebo) on Days 2 and 16 of each 4-week cycle.\nAfter completion of the 6-cycle chemo-immunotherapy phase, responding or stable patients received study agent (placebo) every 4 weeks during the maintenance phase for an additional period of up to 12 injections. […]"}, "[5]": {"test_system": "Patients with HR+ HER2-Neg/Low after Failure of ET Based Therapy", "experiment": "Efficacy of single agent chemotherapy after failure of ET based therapy", "format": "in vivo, human", "settings": "Prior CDK4/6", "from_the_text": "Efficacy of Single Agent Chemotherapy for Patients with HR^+ HER2-Neg/Low after Failure of ET Based Therapy"}}, "note": "Read-outs that look alike come from different tables or passages of the source.", "data": [{"compound": "CCCCCOC(=O)Nc1nc(=O)n([C@@H]2O[C@H](C)[C@@H](O)[C@H]2O)cc1F", "note": "[Capecitabine, capecitabine]", "values": [{"measurement": "ORR (%)", "setting": "[1]", "result": "19-30%"}, {"measurement": "OS (months)", "setting": "[1]", "result": "9.3-18 months"}, {"measurement": "PFS (months)", "setting": "[1]", "result": "2.8-5.9 months"}]}, {"compound": "atezolizumab: PD-L1 inhibitor tested plus paclitaxel in IMpassion131", "values": [{"measurement": "PFS over paclitaxel alone", "setting": "[2]", "result": "did not demonstrate a statistically significant improvement in PFS"}]}, {"compound": "pembrolizumab-chemotherapy: pembrolizumab in combination with chemotherapy (paclitaxel, nab-paclitaxel, or carboplatin-gemcitabine), KEYNOTE-355", "values": [{"measurement": "median PFS", "setting": "[3]", "result": 9.7, "unit": "months"}]}, {"compound": "CC(=O)O[C@H]1C(=O)[C@@]2(C)[C@H]([C@H](OC(=O)c3ccccc3)[C@]3(O)C[C@H](OC(=O)[C@H](O)[C@@H](NC(=O)c4ccccc4)c4ccccc4)C(C)=C1C3(C)C)[C@]1(OC(C)=O)CO[C@@H]1C[C@@H]2O", "note": "[Paclitaxel, paclitaxel]", "values": [{"measurement": "OS", "setting": "[4]; no prior CDK4/6 therapy", "result": 20.4, "unit": "months"}, {"measurement": "median OS", "setting": "[4]; patients pre-treated with CDK4/6", "result": 14.9, "unit": "months"}, {"measurement": "ORR (%)", "setting": "[5]", "result": 36, "unit": "%"}, {"measurement": "OS (months)", "setting": "[5]", "result": 14.9, "unit": "months"}, {"measurement": "PFS (months)", "setting": "[5]", "result": 6.7, "unit": "months"}, {"measurement": "ORR (%)", "setting": "[1]", "result": "21-51%"}, {"measurement": "OS (months)", "setting": "[1]", "result": "20.4-25.8 months"}, {"measurement": "PFS (months)", "setting": "[1]", "result": "5.9-8.8 months"}]}]}
